Source: patent publication US20250136606A1, “MODULATORS OF TRPML, THEIR COMPOSITIONS AND METHODS OF USE” (Caraway Therapeutics, Inc., priority 2021, published 2025)
pEC50: −log10 of the molar value.

How the values were obtained:
Format in all cases: cell-based
Details in all cases: fluorescent calcium assay
TRPML2 = biological target: T1, TRPML2 (Homo sapiens, UniProt Q8IZK6); assay: Fluorescent TRPML2 assay (performed as for TRPML1, substituting the TRPML2 subtype)
T1 construct: expressed in transfected cells
T1 sequence (Q8IZK6 1-566): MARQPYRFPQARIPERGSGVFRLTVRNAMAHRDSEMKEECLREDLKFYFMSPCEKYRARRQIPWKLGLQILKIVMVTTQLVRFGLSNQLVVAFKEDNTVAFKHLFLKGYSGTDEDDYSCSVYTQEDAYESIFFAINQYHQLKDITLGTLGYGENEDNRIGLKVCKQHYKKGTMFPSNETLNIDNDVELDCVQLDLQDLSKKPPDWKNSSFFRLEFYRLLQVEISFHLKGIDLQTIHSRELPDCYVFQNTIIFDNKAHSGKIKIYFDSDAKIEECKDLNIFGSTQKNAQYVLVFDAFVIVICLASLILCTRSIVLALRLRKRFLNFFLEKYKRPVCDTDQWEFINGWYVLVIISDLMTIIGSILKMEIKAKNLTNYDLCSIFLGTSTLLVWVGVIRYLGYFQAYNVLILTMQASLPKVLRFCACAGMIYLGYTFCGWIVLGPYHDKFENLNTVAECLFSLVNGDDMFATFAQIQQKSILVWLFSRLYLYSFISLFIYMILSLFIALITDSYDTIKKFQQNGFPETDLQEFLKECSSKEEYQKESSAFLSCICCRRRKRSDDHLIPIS
Method in brief: (§1)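 Agonist activity is scored as percent of plate controls from Fluo4 fluorescence after dye-loaded, doxycycline-induced HEK-293 Trex cells meet compound in high-calcium (10 mM) Ringer's. Compounds run in half-log dilutions from 20 micromolar final, in triplicate.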

TRPML1 = TRPML1 (Homo sapiens, UniProt Q9GZU1); assay: Fluorescent TRPML1 assay (Fluo4-AM calcium fluorescence in doxycycline-induced HEK-293 Trex cells)
Sequence of TRPML1 (Q9GZU1 whole entry L15A/L16A/L577A/L578A, form open): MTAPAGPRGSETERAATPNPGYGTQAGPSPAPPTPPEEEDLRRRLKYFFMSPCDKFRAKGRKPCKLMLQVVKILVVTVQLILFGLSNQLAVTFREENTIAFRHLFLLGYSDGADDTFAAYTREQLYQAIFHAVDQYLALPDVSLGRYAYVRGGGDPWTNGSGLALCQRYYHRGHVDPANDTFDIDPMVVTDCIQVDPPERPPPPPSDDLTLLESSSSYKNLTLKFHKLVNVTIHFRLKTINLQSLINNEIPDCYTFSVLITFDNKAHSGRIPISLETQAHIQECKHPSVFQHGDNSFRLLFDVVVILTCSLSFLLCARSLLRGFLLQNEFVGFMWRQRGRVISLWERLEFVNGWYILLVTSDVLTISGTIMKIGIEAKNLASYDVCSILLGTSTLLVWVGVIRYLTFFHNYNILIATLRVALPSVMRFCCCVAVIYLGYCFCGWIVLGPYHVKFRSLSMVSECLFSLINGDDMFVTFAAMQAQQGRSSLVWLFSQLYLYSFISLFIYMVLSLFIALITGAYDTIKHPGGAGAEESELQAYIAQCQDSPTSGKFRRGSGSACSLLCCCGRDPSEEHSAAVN
Method in brief: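 HEK-293 Trex cells stably expressing surface-directed mutant human TRPML1, induced with 0.5 µg/mL doxycycline overnight, were loaded with 1 µM Fluo4-AM and added to compound (6 nM–20 µM final, half-log steps, triplicate) in Ringer's with 10 mM calcium. Fluorescence ex 480/em 540; EC50 by non-linear regression versus plate controls.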

TRPML3 = biological target: T2, TRPML3 (Homo sapiens, UniProt Q8TDD5); assay: Fluorescent TRPML3 assay (performed as for TRPML1, substituting the TRPML3 subtype)
T2 construct: expressed in transfected cells
T2 sequence (Q8TDD5 1-553): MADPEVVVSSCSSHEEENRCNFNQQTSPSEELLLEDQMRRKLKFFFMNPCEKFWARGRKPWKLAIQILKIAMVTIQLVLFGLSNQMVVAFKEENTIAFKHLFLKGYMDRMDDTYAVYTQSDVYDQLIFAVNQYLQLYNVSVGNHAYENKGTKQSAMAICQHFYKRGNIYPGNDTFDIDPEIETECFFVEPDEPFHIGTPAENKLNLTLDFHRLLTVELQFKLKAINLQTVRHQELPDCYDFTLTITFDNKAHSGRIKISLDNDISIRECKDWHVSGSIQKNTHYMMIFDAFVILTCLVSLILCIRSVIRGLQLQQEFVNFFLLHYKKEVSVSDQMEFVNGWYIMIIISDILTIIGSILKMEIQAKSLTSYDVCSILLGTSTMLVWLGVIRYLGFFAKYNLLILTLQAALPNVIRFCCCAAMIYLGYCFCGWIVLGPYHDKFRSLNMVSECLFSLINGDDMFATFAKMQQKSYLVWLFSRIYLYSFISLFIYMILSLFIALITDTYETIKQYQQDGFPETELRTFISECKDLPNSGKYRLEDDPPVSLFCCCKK
Method in brief: as §1

| pEC50 (TRPML2) | pEC50 (TRPML1) | pEC50 (TRPML3) | SMILES |
| --- | --- | --- | --- |
| 5.70 to 6.30 | 6.30 to 7.00 | 6.30 to 7.00 | COc1cc(-n2cc(C3CC3)c3c(N4CCN(C(=O)OC(C)(C)C)C[C@@H]4C)ncnc32)cc(F)c1F [Compound 301, tert-butyl (S)-4-(5-cyclopropyl-7-(3,4-difluoro-5-methoxyphenyl)-7H-pyrrolo[2,3-d]pyrimidin-4-yl)-3-methylpiperazine-1-carboxylate] |
| < 5.70 | 5.70 to 6.30 | 6.30 to 7.00 | COc1cc(C#N)cc(-n2cc(C3CC3)c3c(N4CCN(C(=O)OC(C)(C)C)C[C@@H]4C)ncnc32)c1 [Compound 302, tert-butyl (S)-4-(7-(3-cyano-5-methoxyphenyl)-5-cyclopropyl-7H-pyrrolo[2,3-d]pyrimidin-4-yl)-3-methylpiperazine-1-carboxylate] |
| 5.70 to 6.30 | 6.30 to 7.00 | 6.30 to 7.00 | C[C@H]1CN(C(=O)OC(C)(C)C)CCN1c1ncnc2c1c(C1CC1)cn2-c1cc(C#N)cc(OC(F)(F)F)c1 [Compound 303, tert-butyl (S)-4-(7-(3-cyano-5-(trifluoromethoxy)phenyl)-5-cyclopropyl-7H-pyrrolo[2,3-d]pyrimidin-4-yl)-3-methylpiperazine-1-carboxylate] |
| 5.70 to 6.30 | 5.70 to 6.30 | 6.30 to 7.00 | Cc1ccc(Cl)cc1-n1cc(N2CCCC2)c2c(N3CCN(C(=O)OC(C)(C)C)C[C@@H]3C)ncnc21 [Compound 306, tert-butyl (S)-4-(7-(5-chloro-2-methylphenyl)-5-(pyrrolidin-1-yl)-7H-pyrrolo[2,3-d]pyrimidin-4-yl)-3-methylpiperazine-1-carboxylate] |
| > 7.00 | > 7.00 | > 7.00 | C[C@H]1CN(C(=O)OC(C)(C)C)CCN1c1ncnc2c1c(N1CCC(F)(F)C1)cn2-c1cccc(Cl)c1 [Compound 308, tert-butyl (S)-4-(7-(3-chlorophenyl)-5-(3,3-difluoropyrrolidin-1-yl)-7H-pyrrolo[2,3-d]pyrimidin-4-yl)-3-methylpiperazine-1-carboxylate] |
| < 5.70 | < 5.70 | 5.70 to 6.30 | C[C@H]1CN(C(=O)OC(C)(C)C)CCN1c1ncnc2c1c(N1CCCC1=O)cn2-c1cccc(Cl)c1 [Compound 309, tert-butyl (S)-4-(7-(3-chlorophenyl)-5-(2-oxopyrrolidin-1-yl)-7H-pyrrolo[2,3-d]pyrimidin-4-yl)-3-methylpiperazine-1-carboxylate] |
| > 7.00 | > 7.00 | > 7.00 | C[C@H]1CN(C(=O)OC(C)(C)C)CCN1c1ncnc2c1c(N1CCCCC1)cn2-c1cccc(Cl)c1 [Compound 310, tert-butyl (S)-4-(7-(3-chlorophenyl)-5-(piperidin-1-yl)-7H-pyrrolo[2,3-d]pyrimidin-4-yl)-3-methylpiperazine-1-carboxylate] |
| 5.70 to 6.30 | 6.30 to 7.00 | > 7.00 | C[C@H]1CN(C(=O)OC(C)(C)C)CCN1c1ncnc2c1c(N1CCC[C@@H]1CO)cn2-c1cccc(Cl)c1 [Compound 312, tert-butyl (S)-4-(7-(3-chlorophenyl)-5-((R)-2-(hydroxymethyl)pyrrolidin-1-yl)-7H-pyrrolo[2,3-d]pyrimidin-4-yl)-3-methylpiperazine-1-carboxylate] |
| < 5.70 | 5.70 to 6.30 | 6.30 to 7.00 | COc1cc(-n2cc(C3CC3)c3c(N4CCN(C(=O)OC(C)(C)C)C[C@@H]4C)ncnc32)ccc1F [Compound 317, tert-butyl (S)-4-(5-cyclopropyl-7-(4-fluoro-3-methoxyphenyl)-7H-pyrrolo[2,3-d]pyrimidin-4-yl)-3-methylpiperazine-1-carboxylate] |
| 5.70 to 6.30 | > 7.00 | 6.30 to 7.00 | C[C@H]1CN(C(=O)OC(C)(C)C(F)(F)F)CCN1c1ncnc2c1c(C1CC1)cn2-c1cc(C#N)ccn1 [Compound 318, 1,1,1-trifluoro-2-methylpropan-2-yl (S)-4-(7-(4-cyanopyridin-2-yl)-5-cyclopropyl-7H-pyrrolo[2,3-d]pyrimidin-4-yl)-3-methylpiperazine-1-carboxylate] |

The remaining lines, values behind:

| SMILES | pEC50 (TRPML2) | pEC50 (TRPML1) | pEC50 (TRPML3) |
| --- | --- | --- | --- |
| C[C@@H]1CN(c2ncnc3c2c(N2CCC(F)(F)C2)cn3-c2cccc(Cl)c2)CCN1C(=O)OC(C)(C)C [Compound 300, tert-butyl (R)-4-(7-(3-chlorophenyl)-5-(3,3-difluoropyrrolidin-1-yl)-7H-pyrrolo[2,3-d]pyrimidin-4-yl)-2-methylpiperazine-1-carboxylate] | 5.70 to 6.30 | > 7.00 | > 7.00 |
| Cc1nccnc1-c1cn(-c2cccc(OC(F)(F)F)c2)c2ncnc(N3CCN(C(=O)OC(C)(C)C)C[C@@H]3C)c12 [Compound 304, tert-butyl (S)-3-methyl-4-(5-(3-methylpyrazin-2-yl)-7-(3-(trifluoromethoxy)phenyl)-7H-pyrrolo[2,3-d]pyrimidin-4-yl)piperazine-1-carboxylate] | 5.70 to 6.30 | 5.70 to 6.30 | 6.30 to 7.00 |
| Cc1nccnc1-c1cn(-c2cc(F)c(F)c(F)c2)c2ncnc(N3CCN(C(=O)OC(C)(C)C)C[C@@H]3C)c12 [Compound 305, tert-butyl (S)-3-methyl-4-(5-(3-methylpyrazin-2-yl)-7-(3,4,5-trifluorophenyl)-7H-pyrrolo[2,3-d]pyrimidin-4-yl)piperazine-1-carboxylate] | < 5.70 | 5.70 to 6.30 | 6.30 to 7.00 |
| C[C@H]1CN(C(=O)OC(C)(C)C)CCN1c1ncnc2c1c(N1CCC[C@@H]1CO)cn2-c1cc(F)cc(F)c1 [Compound 307, tert-butyl (S)-4-(7-(3,5-difluorophenyl)-5-((R)-2-(hydroxymethyl)pyrrolidin-1-yl)-7H-pyrrolo[2,3-d]pyrimidin-4-yl)-3-methylpiperazine-1-carboxylate] | 5.70 to 6.30 | 5.70 to 6.30 | > 7.00 |
| C[C@@H]1CN(c2ncnc3c2c(N2CCCC2)cn3-c2cccc(OC(F)(F)F)c2)CCN1C(=O)OC(C)(C)C [Compound 311, tert-butyl (R)-2-methyl-4-(5-(pyrrolidin-1-yl)-7-(3-(trifluoromethoxy)phenyl)-7H-pyrrolo[2,3-d]pyrimidin-4-yl)piperazine-1-carboxylate] | > 7.00 | > 7.00 | > 7.00 |
| C[C@@H]1CN(c2ncnc3c2c(N2CCCC2=O)cn3-c2cc(F)c(F)c(F)c2)CCN1C(=O)OC(C)(C)C [Compound 313, tert-butyl (R)-2-methyl-4-(5-(2-oxopyrrolidin-1-yl)-7-(3,4,5-trifluorophenyl)-7H-pyrrolo[2,3-d]pyrimidin-4-yl)piperazine-1-carboxylate] | < 5.70 | < 5.70 | 5.70 to 6.30 |
| Cc1nccnc1-c1cn(-c2cc(C#N)ccn2)c2ncnc(N3CCN(C(=O)OC(C)(C)C)C[C@@H]3C)c12 [Compound 319, tert-butyl (S)-4-(7-(4-cyanopyridin-2-yl)-5-(3-methylpyrazin-2-yl)-7H-pyrrolo[2,3-d]pyrimidin-4-yl)-3-methylpiperazine-1-carboxylate] | 5.70 to 6.30 | 5.70 to 6.30 | 6.30 to 7.00 |
| C[C@H]1CN(C(=O)OC(C)(C)C)CCN1c1ncnc2c1c(-c1cnn(C)c1)cn2-c1cccc(OC(F)(F)F)c1 [Compound 321, tert-butyl (S)-3-methyl-4-(5-(1-methyl-1H-pyrazol-4-yl)-7-(3-(trifluoromethoxy)phenyl)-7H-pyrrolo[2,3-d]pyrimidin-4-yl)piperazine-1-carboxylate] | < 5.70 | 5.70 to 6.30 | 5.70 to 6.30 |
